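48-hour exposure; five concentrations; linearly interpolated endpoints. TGI: total growth inhibition.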
Tests used:
Assay in all cases: inhibition of tumour cell growth, NCI panel, 48 h
[1] = tested on: SF-295 CNS
[2] = tested on: SK-MEL-2 melanoma
[3] = tested on: HOP-62 NSCLC
[4] = tested on: MALME-3M melanoma
[5] = tested on: UACC-62 melanoma
[6] = tested on: HT29 colon
[7] = tested on: EKVX NSCLC
[8] = tested on: HL-60(TB) leukemia
[9] = tested on: NCI-H522 lung
[10] = tested on: HOP-18 NSCLC
[11] = tested on: KM20L2 colon
[12] = tested on: XF 498 CNS

Compound | TGI [1] [µM] | TGI [2] [µM] | TGI [3] [µM] | TGI [4] [µM] | TGI [5] [µM] | TGI [6] [µM] | TGI [7] [µM] | TGI [8] [µM] | TGI [9] [µM] | TGI [10] [µM] | TGI [11] [µM] | TGI [12] [µM]
CC1CN=C(c2cccc(-c3nc(-c4cccc(C5=NCC(C)N5)c4)nc(N(C)C)n3)c2)N1 (configuration not stated) | 14.3 | 4.64 | 5.9 | 14.8 | 3.83 | 5.48 | 8.64 | 4.81 | 2.51 |  |  | 
C=CCN(c1cc(OC)c2[nH]c(C(=O)OCC)c(C)c2c1[N+](=O)[O-])S(C)(=O)=O | > 100 | 51.3 | > 100 | 60.8 | 61.7 | 35.5 | 46.2 | 46.5 | 43.9 |  |  | 
COc1ccc2[nH]c3c(C)cc([N+](=O)[O-])c(C)c3c2c1 | > 100 | 46 |  | 73.4 |  | 83.8 | > 100 | 50.4 | 43 | > 100 | > 100 | > 100
C=CCCCCOC1C=CC(O)C(CO)O1 (configuration not stated) | > 100 | > 100 | > 100 | > 100 | > 100 | > 100 | > 100 | > 100 | > 100 |  |  | 
CC1(C)CCCCCC(C)(CCCO)C1=O (configuration not stated) | > 100 | > 100 | > 100 | > 100 | > 100 | > 100 | > 100 | > 100 | > 100 |  |  | 
CCOC(=O)c1c(N2CCCC2)ncn(C)c1=S | > 100 | > 100 | > 100 | > 100 | > 100 | > 100 | > 100 | > 100 | > 100 |  |  | 
COc1cccc2cc(C(C)=O)c(=O)oc12 | > 100 | > 100 | > 100 | > 100 | > 100 | > 100 | > 100 | > 100 | > 100 |  |  | 
COC(=O)/C=C(\S/C=C(/c1ccccc1)N1CCn2c(C(=O)c3ccccc3)c(C(=O)OC)c(C(=O)OC)c21)C(=O)OC | > 10 | > 10 | 5.02 | 4.81 | > 10 | > 10 | > 10 | 2.6 | 1.73 |  |  | 
O=C(NNS(=O)(=O)c1ccccc1)c1cccnc1 | > 100 | > 100 | > 100 | > 100 | > 100 | > 100 | > 100 | > 100 | > 100 |  |  | 
Cc1ccc(O)c(C2=CC(c3cccc(Br)c3)SC(N)=N2)c1 (configuration not stated) | 42.2 | 39.4 | 52 | 78.9 | 34.5 | > 100 | 59.9 | 75.1 | 37.7 |  |  | 
CCCN1C(=O)/C(=C\c2ccc(OC)c(OC)c2)SC1=Nc1ccccc1 | > 100 | > 100 | 98.5 | > 100 | > 100 | > 100 | > 100 | > 100 | > 100 |  |  | 
CCOC(=O)CN1CC(C2=C(O)CN(CC(=O)OCC)C2=O)=CC1=O | > 100 | > 100 | > 100 | > 100 | > 100 | > 100 | > 100 | > 100 | > 100 |  |  | 
COc1ccc(N2C(=O)C3c4[nH]c5ccc(F)cc5c4C4CCC(C(C)(C)C)CC4C3C2=O)cc1 (configuration not stated) | > 10 | > 10 | > 10 | > 10 | > 10 | > 10 | > 10 | > 10 | > 10 |  |  | 
O=C(Nc1cccc2ccccc12)c1ccccc1 | > 100 | > 100 | > 100 | > 100 | > 100 | > 100 | > 100 | > 100 | > 100 |  |  | 
COP(=O)(OC)/C(=C/c1cn(C(c2ccccc2)(c2ccccc2)c2ccccc2)cn1)NC=O | 30.5 | 34.4 | 35.9 | 38.5 | 41.3 | 33.8 | 56.9 | > 100 | 41.2 |  |  | 
N#CCN(CC#N)C1CC=CCC1N(CC#N)CC#N (configuration not stated) | > 100 | > 100 | > 100 | > 100 | > 100 | > 100 | > 100 | > 100 | > 100 |  |  | 
c1ccc2c(c1)ccn1ccc3c4ccccc4nc-3c21 | 2.03 | 2.54 | 1.85 | 2.01 | 3.81 | 1.58 | 1.13 | 1.36 | 1.7 |  |  | 
COc1ccc2nc3n(c2c1)C(=O)c1ccccc1-3 | > 100 | > 100 | > 100 | > 100 | > 100 | > 100 | > 100 | > 100 | > 100 |  |  | 
COc1ccc(C(=O)N/N=C/c2c(C)n(C)n(-c3ccccc3)c2=O)cc1 | > 100 | > 100 | > 100 | > 100 | > 100 | > 100 | > 100 | > 100 | > 100 | > 100 | > 100 | > 100
CC(CN(C)C)C(=O)c1ccccc1 (configuration not stated) | > 100 | 66.8 | > 100 | > 61.1 | > 57.4 | 41.3 | > 79 | > 57 | 4.32 | > 100 | > 87.5 | 45
CCn1c2c(c3ccccc31)C(c1ccccc1)CC1C(=O)N(c3ccccc3)C(=O)C21 (configuration not stated) | > 100 | > 100 | > 100 | 52.4 | > 100 |  | > 100 | > 100 | > 100 |  | > 100 | 37.2

— PubChem BioAssay (NCI)
